How the values were obtained:
[1] = Clearance in human liver microsomes; type: in vitro ADME; conditions: hepatic extraction ratio; 0.5 μM compound, 0.5 mg/mL microsomes, 1 mM NADPH, 30 min
Method: Test compound concentration is 0.5 μM, microsome concentration is 0.5 mg/mL and NADPH concentration is 1 mM in the incubation. The described method is performed by the liquid handling system Tecan RSP and is based on a 96-well format.
Control incubations with test compound without NADPH and test compound without microsomes are conducted to investigate non-CYP mediated metabolism and stability in phosphate buffer at 37° C., respectively.
The human liver microsomal suspension in phosphate buffer is mixed with NADPH. The mixture is pre-heated (7 min) to 37° C. Test compound is added, and the mixture is incubated for 30 minutes. Incubations are run in duplicate. Samples are withdrawn at predetermined stop times and mixed with methanol containing internal standard (IS) to terminate all enzyme activity and precipitate proteins. A control without NADPH (to detect problems such as nonspecific protein binding, heat instability or non-CYP mediated metabolism) and a control without microsomes (for assessing compound stability in the absence of any active enzymes) are tested.
(§1) The percentage of organic solvent in the incubations is less than 1%. Careful inspections of reagents are performed prior to the start of any experiment to ensure all reagents are in solution.
(§2) The 96-well plates are centrifuged. Test compound depletion, using a compound specific LC/MS/MS method, is determined.
The logarithm of the peak area ratios of test compound to internal standard (IS) versus incubation time is plotted in a graph.
The rate constant (k) (min^−1) of test compound depletion is calculated from the linear part of the curve and the half-time (t1/2) in minutes can be calculated from the rate constant (Eq. 2).
Intrinsic clearance (Clint) (mL/min/mg protein) is calculated from: […]
where c is the microsomal protein concentration in mg/mL.
Intrinsic clearance is the maximum ability of the liver to extract a drug in the absence of blood flow restrictions.
Conversion to apparent clearance (Clapp) (mL/min/kg) is done by Eq. 4:
Clapp=Clint×a×b/d (Eq. 4)
where a, b and d are the scaling factors for normalizing Clint to human body weight.
The following human scaling factors are used:
a: 45 (microsomal protein/liver weight (mg/g)) b: 1500 (liver weight (g)) d: 70 (body weight (kg))
Hepatic clearance (Clh) (mL/min/kg) based on the well-stirred model is described as followed:
Clh=(Clapp·Q)/(Clapp+Q) (Eq. 5)
where Q is the liver blood flow in mL/min/kg (20 in humans).
Dividing hepatic clearance with liver blood flow, the hepatic extraction ratio (%) can be calculated:
(§3) Apparent clearance below approximately 10 mL/min/kg human body weight (corresponding to extraction ratio of approx. 33%) is considered as low clearance (high metabolic stability). Apparent intrinsic clearance above approximately 60 mL/min/kg human body weight (corresponding to extraction ratio of approx. 75%) is considered as high clearance (low metabolic stability).

[2] = Clearance in rat hepatocytes; type: in vitro ADME; conditions: hepatic extraction ratio; 0.5 μM compound, 1×10^6 cells/mL, 20 min
Method: Test compounds and 4 control compounds are tested in duplicate per run. Test compound concentration is 0.5 μM and cell concentration is 1×10^6 cells/mL in the incubation. The described method is performed by the liquid handling system Tecan RSP and is based on a 96-well format.
The liver is collected from a male Spraque-Dawley rat. One liver lobe is cut off and flushed with various buffers to loosen the cells. The cell suspension is washed and centrifuged, and the cell density is adjusted to 1.2×10^6 cells/mL with Krebs-Henseleit buffer, pH 7.4, containing 0.2% bovine serum albumin (BSA). Only cell suspensions with viability above 80% are used.
The cell suspension is pre-heated (20 min) to 37° C. Test compound is added, and the mixture is incubated for 20 minutes. Incubations are run in duplicate. Samples are withdrawn at predetermined stop times and mixed with methanol containing internal standard (IS) to terminate all enzyme activity and precipitate proteins.
as §1, §2
Data analysis is performed as described above in the section “Biological assay for analysis of clearance in human liver microsomes”, with the following modifications:
Intrinsic clearance (Clint) (mL/min/10^6 cells) is calculated from: […]
where c is the cell concentration in 10^6 cells/mL.
The following scaling factors for rat are used for eq. 4:
a: 120 (cells/liver weight (10^6 cells/g)) b: 10 (liver weight (g)) d: 0.25 (body weight (kg))
Liver blood flow in rats (for eq. 5):
as §3, with “25” for “10”, “rat” for “human”, “to an” for “to”, “165” for “60”

COc1cc([C@@H](C)N[C@H]2CC[C@@H](c3ccc(NCCS(N)(=O)=O)nc3)C2)ccc1F [Compound 113, 2-[[5-[(1R,3S)-3-[[(1R)-1-(4-Fluoro-3-methoxyphenyl)ethyl]amino]cyclopentyl]-2-pyridyl]amino]ethanesulfonamide]
Clearance (% Eh) in human liver microsomes [1]: A (A: Eh < 33%)
Clearance (% Eh) in rat hepatocytes [2]: A (A: Eh < 33%)

C[C@@H](N[C@H]1CC[C@@H](c2ccc(NCCNCCO)nc2)C1)c1cccc2ccccc12.O=CO.O=CO.O=CO [Compound 101, 2-[2-[[5-[(1R,3S)-3-[[(1R)-1-(1-Naphthyl)ethyl]amino]cyclopentyl]-2-pyridyl]amino]ethylamino]ethanol]
Clearance (% Eh) in human liver microsomes [1]: A (A: Eh < 33%)
Clearance (% Eh) in rat hepatocytes [2]: B (B: 33% ≦ Eh ≦ 75%)

COc1cc([C@@H](C)N[C@H]2CC[C@@H](c3ccc(N4CCNC(=O)C4)nc3)C2)ccc1F [Compound 109, 4-[5-[(1R,3S)-3-[[(1R)-1-(4-Fluoro-3-methoxy-phenyl)ethyl]amino]cyclopentyl]-2-pyridyl]piperazin-2-one]
Clearance (% Eh) in human liver microsomes [1]: A (A: Eh < 33%)
Clearance (% Eh) in rat hepatocytes [2]: A (A: Eh < 33%)

COc1cc([C@@H](C)N[C@H]2CC[C@@H](c3ccc(NCC(O)CO)nc3)C2)ccc1F (stereo partly drawn) [Compound 115, 3-[[5-[(1R,3S)-3-[[(1R)-1-(4-Fluoro-3-methoxyphenyl)ethyl]amino]cyclopentyl]-2-pyridyl]amino]propane-1,2-diol]
Clearance (% Eh) in human liver microsomes [1]: A (A: Eh < 33%)
Clearance (% Eh) in rat hepatocytes [2]: A (A: Eh < 33%)

COc1cc([C@@H](C)N[C@H]2CC[C@@H](c3ccc(N4CCN(C(C)=O)CC4)nc3)C2)ccc1F [Compound 116, 1-[4-[5-[(1R,3S)-3-[[(1R)-1-(4-Fluoro-3-methoxyphenyl)ethyl]amino]cyclopentyl]-2-pyridyl]piperazin-1-yl]ethanone]
Clearance (% Eh) in human liver microsomes [1]: A (A: Eh < 33%)
Clearance (% Eh) in rat hepatocytes [2]: A (A: Eh < 33%)

COc1cc([C@@H](C)N[C@H]2CC[C@@H](c3cnc(N4CCN(C(C)=O)CC4)nc3)C2)ccc1F.O=CO [Compound 127, 1-[4-[5-[(1R,3S)-3-[[(1R)-1-(4-Fluoro-3-methoxy-phenyl)ethyl]amino]cyclopentyl]pyrimidin-2-yl]piperazin-1-yl]ethanone]
Clearance (% Eh) in human liver microsomes [1]: A (A: Eh < 33%)
Clearance (% Eh) in rat hepatocytes [2]: A (A: Eh < 33%)

COc1cc([C@@H](C)N[C@H]2CC[C@@H](c3ccc(NC4CCNCC4)nc3)C2)ccc1F [Compound 107, 5-[(1R,3S)-3-[[(1R)-1-(4-Fluoro-3-methoxy-phenyl)ethyl]amino]cyclopentyl]-N-(4-piperidyl)pyridin-2-amine]
Clearance (% Eh) in human liver microsomes [1]: A (A: Eh < 33%)
Clearance (% Eh) in rat hepatocytes [2]: A (A: Eh < 33%)

COc1cc([C@@H](C)N[C@H]2CC[C@@H](c3cnc(N4CCNC(=O)C4)nc3)C2)ccc1F [Compound 126, 4-[5-[(1R,3S)-3-[[(1R)-1-(4-Fluoro-3-methoxy-phenyl)ethyl]amino]cyclopentyl]pyrimidin-2-yl]piperazin-2-one]
Clearance (% Eh) in human liver microsomes [1]: A (A: Eh < 33%)
Clearance (% Eh) in rat hepatocytes [2]: B (B: 33% ≦ Eh ≦ 75%)

Reference: patent publication US20130267516A1, “SUBSTITUTED CYCLOPENTYL-AZINES AS CASR-ACTIVE COMPOUNDS” (LEO PHARMA A/S, priority 2010, published 2013)
